Measurements as given in US8148407B2, “Compounds derived from 5-thioxylose and their use in therapeutics” (Laboratories Fournier S.A., priority 2005, dated 2012).

Assays:
[1] = test system: venous thrombosis; experiment: Venous thrombosis test in the rat (Wessler venous stasis under hypercoagulation with factor Xa), oral administration; type: in vivo; conditions: Wistar male rats
Protocol: The antithrombotic activity of the compounds according to the invention was studied in vivo in the rat by means of a test that reproduces a venous thrombosis. The venous thrombosis was induced according to the protocol described in Thromb. Haemost., 1992, 67(1), 176-179. The oral activity was studied according to the following operating protocol: The experiments are performed on non-fasted Wistar male rats weighing 250 to 280 g, divided into groups of 10 animals each. The test products are administered orally (tubage) dissolved or suspended in a solution of methyl cellulose (0.5% in water). […] To induce this thrombosis, a venous stasis is created under hypercoagulation according to the technique described by WESSLER (J. Applied Physiol., 1959, 943-946), the hypercoagulating agent used being a solution of activated factor X (Xa) having a concentration of 7.5 nKat/kg, supplied by Biogenic (Montpellier). The venous stasis is effected exactly 10 seconds after injection of the hypercoagulating agent. The activity of the test compounds was checked at different doses after they had been administered.

[2] = Rattus norvegicus, dose 6 mg/kg, thrombosis induced 2 h after administration, read-out: Oral activity: Activity (percentage inhibition of thrombus formation)
[3] = dose 6 mg/kg, thrombosis induced 2 h after administration

| melting point [°C] | Structure (SMILES) | inhibition in vivo at 6 mg/kg [1, 2] [%] | further results |
| --- | --- | --- | --- |
| – | CC(=O)c1ccc(O[C@@H]2SC[C@@H](O)[C@H](O)[C@H]2O)cn1 [Example 2, 6-acetyl-3-pyridinyl 5-thio-β-D-xylopyranoside] | 63 | – |
| – | CC(=O)O[C@@H]1[C@@H](OC(C)=O)[C@H](OC(C)=O)CS[C@H]1Oc1cccnc1C(C)=O [Example 3, 2-acetyl-3-pyridinyl 2,3,4-tri-O-acetyl-5-thio-β-D-xylopyranoside] | – | inhibition in vivo at 8.6 mg/kg ([1]; Rattus norvegicus, dose 8.6 mg/kg, thrombosis induced 2 h after administration, read-out: Oral activity: Activity (percentage inhibition of thrombus formation)): 92% |
| 123 | CC(=O)c1ncccc1O[C@@H]1SC[C@@H](O)[C@H](O)[C@H]1O [Example 4, 2-acetyl-3-pyridinyl 5-thio-β-D-xylopyranoside] | 96 | – |
| – | N#Cc1ccc(C(=O)c2ncccc2O[C@@H]2SC[C@@H](O)[C@H](O)[C@H]2O)cc1 [Example 6, [2-(4-cyanobenzoyl)-3-pyridinyl]5-thio-β-D-xylopyranoside] | – | Oral activity: Activity (percentage inhibition of thrombus formation) [1, 3]: 61%; Oral activity: Activity (percentage inhibition of thrombus formation) ([1]; dose 6 mg/kg, thrombosis induced 8 h after administration): 26% |
| – | O=C(c1ccc(C(F)(F)F)cc1)c1ccc(O[C@@H]2SC[C@@H](O)[C@H](O)[C@H]2O)cn1 [Example 8, [6-[4-(trifluoromethyl)benzoyl]-3-pyridinyl]5-thio-β-D-xylopyranoside] | – | Oral activity: Activity (percentage inhibition of thrombus formation) [1, 3]: 46% |
| – | N#Cc1ccc(-c2ncccc2O[C@@H]2SC[C@@H](O)[C@H](O)[C@H]2O)cc1 [Example 12, [2-(4-cyanophenyl)-3-pyridinyl]5-thio-β-D-xylopyranoside] | – | Oral activity: Activity (percentage inhibition of thrombus formation) [1, 3]: 14% |
| – | O[C@@H]1[C@@H](O)[C@H](Oc2cncc(-c3ccccc3)c2)SC[C@H]1O [Example 14, 5-phenyl-3-pyridinyl 5-thio-β-D-xylopyranoside] | 50 | – |
| – | CC(=O)O[C@@H]1[C@@H](OC(C)=O)[C@H](OC(C)=O)CS[C@H]1Oc1cncc(-c2ccc(C#N)cc2)c1 [Example 15, [5-(4-cyanophenyl)-3-pyridinyl]2,3,4-tri-O-acetyl-5-thio-β-D-xylopyranoside] | – | Oral activity: Activity (percentage inhibition of thrombus formation) ([1]; dose 8.2 mg/kg, thrombosis induced 2 h after administration): 84% |
| 197 | Cc1cc(-c2cncc(O[C@@H]3SC[C@@H](O)[C@H](O)[C@H]3O)c2)ccc1F [Example 59, 5-(4-fluoro-3-methylphenyl)-3-pyridinyl 5-thio-β-D-xylopyranoside] | 82 | – |
| 217 | Cc1cc(F)ccc1-c1cncc(O[C@@H]2SC[C@@H](O)[C@H](O)[C@H]2O)c1 [Example 61, 5-(4-fluoro-2-methylphenyl)-3-pyridinyl 5-thio-β-D-xylopyranoside] | 98 | – |
| 208 to 211 | O[C@@H]1[C@@H](O)[C@H](Oc2cncc(-c3ccc(F)cc3Cl)c2)SC[C@H]1O [Example 89, 5-(2-chloro-4-fluorophenyl)-3-pyridinyl 5-thio-β-D-xylopyranoside] | 100 | – |
| 191 | Cc1ccc(-c2ccc(O[C@@H]3SC[C@@H](O)[C@H](O)[C@H]3O)cn2)cc1 [Example 99, 6-(4-methylphenyl)-3-pyridinyl 5-thio-β-D-xylopyranoside] | 72 | – |
| 228 | COc1ccc(-c2ccncc2O[C@@H]2SC[C@@H](O)[C@H](O)[C@H]2O)cc1 [Example 101, 4-(4-methoxyphenyl)-3-pyridinyl 5-thio-β-D-xylopyranoside] | 97 | – |
| 200 | COc1ccc(-c2cncc(O[C@@H]3SC[C@@H](O)[C@H](O)[C@H]3O)c2)cc1F [Example 103, 5-(3-fluoro-4-methoxyphenyl)-3-pyridinyl 5-thio-β-D-xylopyranoside] | 100 | – |
| – | O[C@@H]1[C@@H](O)[C@H](Oc2cncc(-c3cccc(F)c3)c2)SC[C@H]1O [Example 123, 5-(3-fluorophenyl)-3-pyridinyl 5-thio-β-D-xylopyranoside] | 97 | – |
| – | O[C@@H]1[C@@H](O)[C@H](Oc2cncc(-c3ccccc3F)c2)SC[C@H]1O [Example 126, 5-(2-fluorophenyl)-3-pyridinyl 5-thio-β-D-xylopyranoside] | 91 | – |
| – | O[C@@H]1[C@@H](O)[C@H](Oc2cncc(-c3ccc(F)c(Cl)c3)c2)SC[C@H]1O [Example 131, 5-(3-chloro-4-fluorophenyl)-3-pyridinyl 5-thio-β-D-xylopyranoside] | 80 | – |
| 198 to 200 | Cc1cc(-c2cncc(O[C@@H]3SC[C@@H](O)[C@H](O)[C@H]3O)c2)ccc1C#N [Example 150, 5-(4-cyano-3-methylphenyl)-3-pyridinyl 5-thio-β-D-xylopyranoside] | – | – |
| 202 to 206 | Cc1cc(C#N)ccc1-c1cncc(O[C@@H]2SC[C@@H](O)[C@H](O)[C@H]2O)c1 [Example 154, 5-(4-cyano-2-methylphenyl)-3-pyridinyl 5-thio-β-D-xylopyranoside] | – | – |
| 192 | N#Cc1ccc(-c2cncc(O[C@@H]3SC[C@@H](O)[C@H](O)[C@H]3O)c2)cc1C#N [Example 156, 5-(3,4-dicyanophenyl)-3-pyridinyl 5-thio-β-D-xylopyranoside] | – | – |
| 143 | CCN(CC)C(=O)c1cncc(O[C@@H]2SC[C@@H](O)[C@H](O)[C@H]2O)c1 [Example 160, 5-[(N,N-diethylamino)carbonyl]-3-pyridinyl 5-thio-β-D-xylopyranoside] | – | – |
| 147 | Cc1cc(F)ccc1-c1cc(O[C@@H]2SC[C@@H](O)[C@H](O)[C@H]2O)ccn1 [Example 162, 2-(4-fluoro-2-methylphenyl)-4-pyridinyl 5-thio-β-D-xylopyranoside] | – | – |
